Measured values taken from publication PMC9401491, “The Novel Nucleoside Analogue ProTide NUC-7738 Overcomes Cancer Resistance Mechanisms In Vitro and in a First-In-Human Phase I Clinical Trial” (Clinical Cancer Research, 2021).

Key:
Format in all cases: cell-based
786-O = experiment: IC50 in renal cancer cell line 786-O; conditions: Homo sapiens, 786-0
SK-OV3 = experiment: MTT cell viability, SK-OV3; conditions: Homo sapiens, SK-OV-3, 48 h
Method: (§1) Cells (10^4) were seeded into 96-well plates and then treated with NUC-7738 (lot 5132/E00393/119) or 3′-dA (cordycepin, catalog no. C3394, lot 067M4182, Sigma) for 48 hours. One and a half milligrams per milliliter MTT (catalog no. M6494, Invitrogen) in a 1:1 ratio was added to cell culture media. After a 2-hour incubation at 37°C, media was removed and 70 μl of isopropanol was added. Optical densities at 570 nm were measured using POLARstar Omega plate reader. Readouts were normalized and IC50 values were calculated using a nonlinear regression model in Graphpad prism (v8.3.0). Each biological replicate (at least 3) was performed in 4 technical replicates to calculate the average IC50 value. To measure apoptosis, the Guava NexinReagent (Luminex Corp.) was used following manufacturer's instructions. Fluorescence staining was measured with an automated 96-well Guava easyCyte Flow Cytometer (Luminex Corp.).

ACHN = experiment: MTT cell viability, ACHN; conditions: Homo sapiens, 48 h
Method: as §1

[1] = tested on: human ccRCC tissue slices; experiment: Ex vivo tissue slice culture of clear cell renal carcinoma; conditions: 0, 5 and 25 μmol/L, 24 hours
Source text: A fresh sample of clear cell renal carcinoma (ccRCC) was placed in formalin to serve as a formalin control for our experiment. The sample was transported in precooled 199 medium (catalog no. 2154) supplemented with penicillin/streptomycin (1%), Normocin (0.2%), and Glutamax (2 mmol/L). The tissue sample was embedded in low-melting point agarose gel and sliced into 250-μm sections using a Vibratome VT1000S (Leica Biosystems). Tissue slices were put immediately into media (199 medium supplemented with 10% FBS, 2 mmol/L Glutamax, and 1% penicillin/streptomycin) containing different concentrations of NUC-7738 (0, 5, and 25 μmol/L) and incubated for 24 hours at 37°C. Treated tissue sections were then fixed using PFA for 1 hour at room temperature and stored in PBS at 4°C. The treated slices were later embedded in paraffin and subsequently sliced into 3-μm sections using a microtome. The sections were placed on slides and baked overnight at 40°C. Sections were dewaxed using xylene and rehydrated in a graded alcohol series followed by tap water. […]
Immunofluorescence staining was performed using BOND RX. NF-κB p65 (catalog no. 4764, CST) and cleaved caspase-3 (catalog no. 9661, CST) were detected with HRP-conjugated secondary antibody and visualized using tyramide-fluorophore conjugates (TSA Cy5 for both). […]

NF-κB = NF-κB SEAP reporter and p65 fractionation in THP-1 cells
Method: Cells were harvested and lyzed using RIPA lysis and extraction buffer (Thermo Scientific) following manufacturer's protocol. Twenty to 30 μg of total protein lysates was loaded on Mini-PROTEAN TGX precast gels (Bio-Rad). Separated proteins were transferred to a polyvinylidene difluoride (PVDF) membrane using Trans-Blot Turbo Transfer System (Bio-Rad) followed by incubation with primary and horseradish peroxidase (HRP)–conjugated secondary antibodies [anti-mouse, catalog no. 7076S, Cell Signaling Technology (CST) or anti-rabbit, catalog no. 7074S, CST] and ECL Prime Western blotting (GE Healthcare) detection. For fractionation, cells were grown in 10-cm tissue culture plates and treated with 30 or 60 μmol/L of 3′-dA or NUC-7738 for 6 hours. Cells were grown in 10-cm tissue culture plates and fractionated using the Nuclear Extraction Kit (Abcam) following manufacturer's instructions. Twenty-five micrograms of each fraction was used for Western blot (WB) detection. NF-κB p65 antibody (catalog no. 8242, CST), nuclear marker Lamin B1 (catalog no. ab16048, Abcam), cytosolic GAPDH (catalog no. 97166, CST), cleaved PARP (catalog no. 9541, CST), and Actin (MAB1501, Merck) were used.
Figure 5. […] C, NF-κB activity was measured using the SEAP reporter gene assay in THP-1 cells. […] SEAP production as result of NF-κB activity was measured using the QuantiBlue colorimetric enzyme assay. […]

UM-RC-2 = experiment: IC50 in renal cancer cell line UM-RC-2; conditions: UMRC2

**Q.** Which results are given for `C[C@H](NP(=O)(OC[C@@H]1C[C@@H](O)[C@H](n2cnc3c(N)ncnc32)O1)Oc1ccccc1)C(=O)OCc1ccccc1` (stereo partly drawn) [NUC-7738, 3′-deoxyadenosine-5′-O-phenyl-(benzyloxy-L-alaninyl)-phosphate]?
**A.** IC50 (786-O): 13 µM; IC50 (SK-OV3): 16.6 µM; IC50 (ACHN): 54.7 µM; nuclear p65 and tumor-cell apoptosis [1]: dose-dependent decrease in nuclear p65 and an increase in tumor-cell apoptosis; nuclear translocation of NF-κB (NF-κB; NF-κB THP1 reporter cell line, LPS, fractionation and Western blot): a reduction in the nuclear translocation of NF-κB; NF-κB activation (NF-κB; THP-1 SEAP reporter, LPS induced): significantly reduced NF-κB activation; IC50 (UM-RC-2): 4 µM
